One block for each molecule: values may come before it.
What was measured:
Bacillus subtilis = test: Contact germicidal screen, Bacillus subtilis ATCC No. 60511; type: cell-based
Protocol: The organisms used in the contact germicidal screen are all maintained as stock cultures on nutrient agar […] 4° C. They are transferred and biochemically diagnosed monthly. The five organisms used are: The media used are: […] Overnight cultures of the test organisms are grown in tryptose phosphate broth. After 15-16 hours, the cultures are centrifuged at […] for 15 minutes, and the supernatant replaced with fresh warm (37° C.) media. After two hours of incubation, the absorbance of the culture at 650 nm is determined and diluted with nutrient broth to 1×10^7 colony forming units per ml (using a previous determined standard curve: colony forming units/ml vs. absorbance at 650). The diluted cultures are maintained at 4°-8° C. throughout the screen. The compounds are weighed into sterile 100 ml volumetric flasks, and immediately before screening dissolved in one of the following buffers: 0.1 M NaOAc pH 4.6 or 0.1 M NaH2 PO4 pH 7.0. If solubility poses a problem, 10-30% methanol is used to effect solution. Two denaturing agents are also tested: […] Horse Serum restored with 100 ml distilled water and 10% Trition×100. When used, 2.5 ml of the denaturing agent is mixed with 2.5 ml of double strength test solution thirty minutes before the bacterial suspension is added. The screen is initiated when 0.2 ml of the bacterial suspension is added to 5.0 ml of the test solution contained in a sterile 25 ml glass stoppered flask. At intervals of 0.5, 2.5, 5.0, 10.0 and 15.0 minutes, a loopful of the inoculated test solution is subcultured into 5 ml of sterile nutrient broth and mixed with a vortex, the high dilution serving to stop the action of the compound. All of the subculture tubes are incubated at 37° C. and checked for signs of growth by turbidity at 1, 3, 5 and 7 days. The earliest subculture time at which no growth is present is considered the endpoint and is recorded as the sterilization time. An aliquot of 0.2 ml of the diluted culture is transferred to 5 ml of buffer to simulate 0.2 ml in 5 ml of test solution. (a) Purity: A loopful of the inoculated buffer is streaked onto nutrient agar to check colony morphology and lack of contaminants. (b) Viability: A loopful of the inoculated buffer is subcultured to 5 ml of nutrient broth as in the screen and incubated at 37° C. for 24 hours. (c) Dilution of the Test Solution: A loopful of the test solution is transferred to a 5 ml tube of nutrient broth, and a loopful of the inoculated buffer is transferred to the same tube of broth. […] (d) Purity of Organisms in the Test Solution: After the 15 minute subculture, a loopful of the inoculated test solution is streaked onto nutrient agar to insure that contamination has not occurred during the screen. (e) lack of Bactericidal Activity of Buffers and Other Solvents: Before a buffer or other solvent is used as a diluent, it is screened against the five organisms to insure that the buffer or solvent has no antibacterial activity itself.

germs = test: Germicidal activity, lowest active concentration; type: cell-based; conditions: read-out: concentration at which germicidal activity is shown
[1] = Stability in Triacetin (preliminary formulation studies); type: physicochemical; conditions: 60° C., two months
Description: Triacetin is the triacetate of glycerin; it is a viscous liquid with high water solubility and very low toxicity. […] Of course other aprotic polar solvents can be used as well.

[2] = 10.0+ PPM, 0.1M NaOAc pH 4.6, screened simultaneously with four other compounds
[3] = 300 PPM with 50% Horse Serum, 0.1M NaOAc pH 4.6
[4] = 300 PPM with 50% Triton X100, 0.1M NaOAc pH 4.6
[5] = 1000 PPM with 50% Horse Serum, 0.1M NaOAc pH 4.6
[6] = 308.0 PPM, Triton X100 (10% solution):pH 4.6 buffer 1:1

SMILES: CC(C)(CC(=O)O)N(Cl)Cl [(II)]
Sterilization Time (Bacillus subtilis; 1.8 PPM, 0.1M NaOAc pH 4.6): 5.0 min
Sterilization Time (Bacillus subtilis; 4.5 PPM, 0.1M NaOAc pH 4.6): 2.5 min
Sterilization Time (Bacillus subtilis; [2]): 2.5 min
Sterilization Time (summary) (Bacillus subtilis; 10 PPM, 0.1M NaOAc pH 4.6): 2.5 min
Sterilization Time (Bacillus subtilis; 10.0 PPM, 0.1M NaOAc pH 4.6): 2.5 min
Sterilization Time (Bacillus subtilis; 12.2 PPM, 0.1M NaOAc pH 4.6): 2.5 min
Sterilization Time (Bacillus subtilis; 32.1 PPM, 0.1M NaOAc pH 4.6): 0.5 min
Sterilization Time (Bacillus subtilis; 51.0 PPM, Triton X100 (10% solution):pH 4.6 buffer 1:1): 0.5 min
Sterilization Time (Bacillus subtilis; 51.0 PPM, horse serum:pH 4.6 buffer 1:1): 15 min
Sterilization Time (Bacillus subtilis; 71.7 PPM, 0.1M NaOAc pH 4.6): 0.5 min
Sterilization Time (summary) (Bacillus subtilis; 100 PPM, 0.1M NaOAc pH 4.6): 0.5 min
Sterilization Time (Bacillus subtilis; 104.7 PPM, 0.1M NaOAc pH 4.6): 0.5 min
Sterilization Time (Bacillus subtilis; 107.8 PPM, 0.1M NaH2PO4 pH 7.0): 5.0 min
Sterilization Time (Bacillus subtilis; 298.9 PPM, 0.1M NaOAc pH 4.6): 0.5 min
Sterilization Time (summary) (Bacillus subtilis; [3]): 2.5 min
Sterilization Time (summary) (Bacillus subtilis; [4]): 0.5 min
Sterilization Time (Bacillus subtilis; 300 PPM, pH 4.6 buffer with 10% serum): 0.5 min
Sterilization Time (Bacillus subtilis; 300 PPM, pH 4.6 buffer with 20% serum): 0.5 min
Sterilization Time (Bacillus subtilis; 300 PPM, pH 4.6 buffer with 35% serum): 2.5 min
Sterilization Time (Bacillus subtilis; 304.6 PPM, horse serum:pH 4.6 buffer 1:1): 2.5 min
Sterilization Time (Bacillus subtilis; 304.8 PPM, Triton X100 (10% solution):pH 4.6 buffer 1:1): 0.5 min
Sterilization Time (Bacillus subtilis; 316.6 PPM, 0.1M NaH2PO4 pH 7.0): 2.5 min
Sterilization Time (Bacillus subtilis; 606.9 PPM, pH 4.6 buffer with 33% serum): 0.5 min
Sterilization Time (Bacillus subtilis; 899.25 PPM, pH 4.6 buffer with 25% serum): 0.5 min
Sterilization Time (summary) (Bacillus subtilis; [5]): 0.5 min
Sterilization Time (summary) (Bacillus subtilis; 1000 PPM, 0.1M NaOAc pH 4.6): 0.5 min
Sterilization Time (Bacillus subtilis; 1001.2 PPM, horse serum:pH 4.6 buffer 1:1): 0.5 min
Sterilization Time (Bacillus subtilis; 1014.8 PPM, 0.1M NaOAc pH 4.6): 0.5 min
Sterilization Time (Bacillus subtilis; 1016.0 PPM, 0.1M NaH2PO4 pH 7.0): 0.5 min
minimal effective concentration (germs): ≤ 5 µg/mL

SMILES: CC(C)(CCC(=O)O)N(Cl)Cl [(III), 4-Dichloroamino-4-methylvaleric acid]
Sterilization Time (Bacillus subtilis; 9.6 PPM, 0.1M NaOAc pH 4.6): 2.5 min
Sterilization Time (Bacillus subtilis; 9.7 PPM, 0.1M NaH2PO4 pH 7.0): 15 min
Sterilization Time (Bacillus subtilis; [2]): 2.5 min
Sterilization Time (summary) (Bacillus subtilis; 10 PPM, 0.1M NaOAc pH 4.6): 2.5 min
Sterilization Time (summary) (Bacillus subtilis; 100 PPM, 0.1M NaOAc pH 4.6): 0.5 min
Sterilization Time (Bacillus subtilis; 102.2 PPM, 0.1M NaOAc pH 4.6): 0.5 min
Sterilization Time (Bacillus subtilis; 103.5 PPM, 0.1M NaH2PO4 pH 7.0): 10.0 min
Sterilization Time (summary) (Bacillus subtilis; [3]): 2.5 min
Sterilization Time (summary) (Bacillus subtilis; [4]): 0.5 min
Sterilization Time (Bacillus subtilis; [6]): 0.5 min
Sterilization Time (Bacillus subtilis; 308.0 PPM, horse serum:pH 4.6 buffer 1:1): 2.5 min
Sterilization Time (summary) (Bacillus subtilis; [5]): 0.5 min
Sterilization Time (summary) (Bacillus subtilis; 1000 PPM, 0.1M NaOAc pH 4.6): 0.5 min
Sterilization Time (Bacillus subtilis; 1000.0 PPM, horse serum:pH 4.6 buffer 1:1): 0.5 min
Sterilization Time (Bacillus subtilis; 1007.7 PPM, 0.1M NaOAc pH 4.6): 0.5 min
Sterilization Time (Bacillus subtilis; 1012.3 PPM, 0.1M NaH2PO4 pH 7.0): 2.5 min

decomposition in esters of polyalcohols such as Triacetin [1]: no decomposition
SMILES: CC(C)(COC(=O)CCC(=O)O)N(Cl)Cl [(IV), 2-Dichloroamino-2-methylpropylhemisuccinate]
Sterilization Time (Bacillus subtilis; 8.6 PPM, 0.1M NaOAc pH 4.6): 5.0 min
Sterilization Time (Bacillus subtilis; 9.8 PPM, 0.1M NaH2PO4 pH 7.0): 15 min
Sterilization Time (Bacillus subtilis; [2]): 2.5 min
Sterilization Time (summary) (Bacillus subtilis; 10 PPM, 0.1M NaOAc pH 4.6): 2.5 min
Sterilization Time (summary) (Bacillus subtilis; 100 PPM, 0.1M NaOAc pH 4.6): 2.5 min
Sterilization Time (Bacillus subtilis; 106.2 PPM, 0.1M NaOAc pH 4.6): 2.5 min
Sterilization Time (Bacillus subtilis; 149.7 PPM, 0.1M NaH2PO4 pH 7.0): 10.0 min
Sterilization Time (summary) (Bacillus subtilis; [3]): 5.0 min
Sterilization Time (summary) (Bacillus subtilis; [4]): 0.5 min
Sterilization Time (Bacillus subtilis; [6]): 0.5 min
Sterilization Time (Bacillus subtilis; 338.7 PPM, horse serum:pH 4.6 buffer 1:1): 5.0 min
Sterilization Time (summary) (Bacillus subtilis; [5]): 0.5 min
Sterilization Time (summary) (Bacillus subtilis; 1000 PPM, 0.1M NaOAc pH 4.6): 0.5 min
Sterilization Time (Bacillus subtilis; 1008.0 PPM, 0.1M NaOAc pH 4.6): 0.5 min
Sterilization Time (Bacillus subtilis; 1024.0 PPM, horse serum:pH 4.6 buffer 1:1): 0.5 min
Sterilization Time (Bacillus subtilis; 1070.3 PPM, 0.1M NaH2PO4 pH 7.0): 2.5 min

SMILES: CC(C)(COC(=O)CCCC(=O)O)N(Cl)Cl [(V), 2-dichloramino-2-methylpropyl-hemiglutarate]
Sterilization Time (Bacillus subtilis; [2]): 2.5 min
Sterilization Time (Bacillus subtilis; 10.0 PPM, 0.1M NaH2PO4 pH 7.0): 15 min
Sterilization Time (summary) (Bacillus subtilis; 10 PPM, 0.1M NaOAc pH 4.6): 2.5 min
Sterilization Time (Bacillus subtilis; 10.0 PPM, 0.1M NaOAc pH 4.6): 5.0 min
Sterilization Time (Bacillus subtilis; 99.1 PPM, 0.1M NaOAc pH 4.6): 2.5 min
Sterilization Time (summary) (Bacillus subtilis; 100 PPM, 0.1M NaOAc pH 4.6): 2.5 min
Sterilization Time (Bacillus subtilis; 106.7 PPM, 0.1M NaH2PO4 pH 7.0): 10.0 min
Sterilization Time (Bacillus subtilis; 291.4 PPM, Triton X100 (10% solution):pH 4.6 buffer 1:1): 0.5 min
Sterilization Time (Bacillus subtilis; 291.4 PPM, horse serum:pH 4.6 buffer 1:1): 5.0 min
Sterilization Time (summary) (Bacillus subtilis; [3]): 5.0 min
Sterilization Time (summary) (Bacillus subtilis; [4]): 0.5 min
Sterilization Time (Bacillus subtilis; 911.8 PPM, 0.1M NaOAc pH 4.6): 0.5 min
Sterilization Time (summary) (Bacillus subtilis; [5]): 0.5 min
Sterilization Time (summary) (Bacillus subtilis; 1000 PPM, 0.1M NaOAc pH 4.6): 0.5 min
Sterilization Time (Bacillus subtilis; 1024.4 PPM, 0.1M NaH2PO4 pH 7.0): 2.5 min
Sterilization Time (Bacillus subtilis; 1042.0 PPM, horse serum:pH 4.6 buffer 1:1): 0.5 min
